Earlier results, collected in article PMC2981028 (Cancer research, 2010).
pIC50: −log10 of the molar value.

Experiments:
insulin receptor (IR) = insulin receptor (IR) (Homo sapiens, UniProt P06213); test: inhibition of IR phosphorylation in vitro; assay type: cell-based
[1] = molecular target: type 1 insulin-like growth factor receptor (IGF-1R) (Homo sapiens, UniProt P08069); test: inhibition of IGF-1R phosphorylation in vitro; assay type: cell-based
Sequence of type 1 insulin-like growth factor receptor (IGF-1R) (P08069 31-736): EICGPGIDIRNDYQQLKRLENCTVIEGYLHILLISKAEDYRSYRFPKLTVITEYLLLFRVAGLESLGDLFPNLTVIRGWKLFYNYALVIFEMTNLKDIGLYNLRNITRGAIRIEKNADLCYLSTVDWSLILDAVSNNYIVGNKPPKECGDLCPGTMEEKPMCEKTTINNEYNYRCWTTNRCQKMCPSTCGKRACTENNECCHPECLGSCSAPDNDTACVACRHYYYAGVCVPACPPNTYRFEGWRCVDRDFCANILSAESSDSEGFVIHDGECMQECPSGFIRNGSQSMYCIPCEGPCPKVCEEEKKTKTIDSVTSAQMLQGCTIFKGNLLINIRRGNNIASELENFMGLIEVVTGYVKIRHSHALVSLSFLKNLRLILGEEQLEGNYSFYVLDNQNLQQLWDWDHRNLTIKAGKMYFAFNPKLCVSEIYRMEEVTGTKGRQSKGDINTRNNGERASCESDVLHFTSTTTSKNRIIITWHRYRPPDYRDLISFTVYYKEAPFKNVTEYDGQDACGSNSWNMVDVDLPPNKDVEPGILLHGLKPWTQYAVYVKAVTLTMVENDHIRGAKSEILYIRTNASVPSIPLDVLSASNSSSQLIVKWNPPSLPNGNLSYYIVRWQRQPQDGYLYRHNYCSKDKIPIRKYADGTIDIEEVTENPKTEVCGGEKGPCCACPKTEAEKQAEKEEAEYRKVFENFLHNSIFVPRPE
Sequence of type 1 insulin-like growth factor receptor (IGF-1R) (P08069 741-1367): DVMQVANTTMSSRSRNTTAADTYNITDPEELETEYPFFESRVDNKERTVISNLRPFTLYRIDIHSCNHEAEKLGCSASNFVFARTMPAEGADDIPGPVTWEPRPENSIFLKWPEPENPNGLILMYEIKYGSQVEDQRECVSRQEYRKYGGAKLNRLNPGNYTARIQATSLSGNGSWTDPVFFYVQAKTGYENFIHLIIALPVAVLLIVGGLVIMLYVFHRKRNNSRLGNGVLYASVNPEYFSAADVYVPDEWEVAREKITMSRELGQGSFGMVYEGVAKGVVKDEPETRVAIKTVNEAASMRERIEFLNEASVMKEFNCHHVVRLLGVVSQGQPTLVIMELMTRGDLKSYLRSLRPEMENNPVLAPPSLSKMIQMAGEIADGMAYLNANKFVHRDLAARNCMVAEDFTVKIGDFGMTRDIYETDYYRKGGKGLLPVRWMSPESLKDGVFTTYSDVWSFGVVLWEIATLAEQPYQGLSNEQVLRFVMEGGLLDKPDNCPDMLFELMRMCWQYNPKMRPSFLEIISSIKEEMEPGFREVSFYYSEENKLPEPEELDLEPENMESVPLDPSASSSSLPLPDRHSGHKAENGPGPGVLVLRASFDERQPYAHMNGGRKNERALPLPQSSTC

Sequence of insulin receptor (IR) (P06213 28-758): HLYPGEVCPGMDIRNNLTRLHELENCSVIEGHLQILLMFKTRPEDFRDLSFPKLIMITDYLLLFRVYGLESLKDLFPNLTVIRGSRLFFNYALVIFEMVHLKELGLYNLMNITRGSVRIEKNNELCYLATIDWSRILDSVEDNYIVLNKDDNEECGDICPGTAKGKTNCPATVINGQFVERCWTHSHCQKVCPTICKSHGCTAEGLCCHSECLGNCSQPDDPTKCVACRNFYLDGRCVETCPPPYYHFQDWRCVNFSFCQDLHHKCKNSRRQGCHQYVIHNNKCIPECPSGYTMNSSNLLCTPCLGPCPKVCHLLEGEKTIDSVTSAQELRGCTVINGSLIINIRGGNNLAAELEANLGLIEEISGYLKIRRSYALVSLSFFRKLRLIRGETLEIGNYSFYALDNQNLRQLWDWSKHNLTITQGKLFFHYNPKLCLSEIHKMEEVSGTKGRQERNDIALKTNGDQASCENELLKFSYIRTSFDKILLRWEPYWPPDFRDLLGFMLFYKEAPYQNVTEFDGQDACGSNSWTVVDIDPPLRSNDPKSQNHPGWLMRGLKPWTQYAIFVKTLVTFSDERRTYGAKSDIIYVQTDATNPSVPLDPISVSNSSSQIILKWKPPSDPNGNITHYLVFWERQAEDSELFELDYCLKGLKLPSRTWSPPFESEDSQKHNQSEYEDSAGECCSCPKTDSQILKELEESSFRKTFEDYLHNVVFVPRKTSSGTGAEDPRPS
Sequence of insulin receptor (IR) (P06213 763-1382): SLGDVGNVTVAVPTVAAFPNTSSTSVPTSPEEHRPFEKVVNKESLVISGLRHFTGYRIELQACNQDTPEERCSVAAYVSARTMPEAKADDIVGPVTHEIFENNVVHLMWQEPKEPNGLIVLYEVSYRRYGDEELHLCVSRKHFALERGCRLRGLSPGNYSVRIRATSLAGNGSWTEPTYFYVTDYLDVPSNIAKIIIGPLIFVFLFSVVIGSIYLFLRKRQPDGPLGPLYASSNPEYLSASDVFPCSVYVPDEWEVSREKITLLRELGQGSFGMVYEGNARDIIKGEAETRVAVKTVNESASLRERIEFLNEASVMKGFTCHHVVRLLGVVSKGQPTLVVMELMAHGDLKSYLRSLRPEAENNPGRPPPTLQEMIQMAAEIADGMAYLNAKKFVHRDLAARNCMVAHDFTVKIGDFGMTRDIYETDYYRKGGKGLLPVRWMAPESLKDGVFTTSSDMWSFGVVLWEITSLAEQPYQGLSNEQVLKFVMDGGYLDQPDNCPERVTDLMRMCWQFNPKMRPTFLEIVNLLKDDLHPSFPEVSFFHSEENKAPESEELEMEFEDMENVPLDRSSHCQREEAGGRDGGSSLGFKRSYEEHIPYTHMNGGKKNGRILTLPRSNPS

pIC50 (insulin receptor (IR)): 7.72 | pIC50 [1]: 8.68
SMILES: Cc1cc(Nc2cc(C)[nH]n2)nc(N2CCC[C@H]2c2cc(-c3ccccn3)no2)n1 [AZ12253801]
